# Source: patent US20180221336A1, “DOSE SPARING KETOROLAC FORMULATIONS AND METHODS AND DEVICES FOR USE WITH SAME” (SteadyMed, Ltd., priority 2017, published 2018)
# Where two headings read alike, the source gives them in different places.
# How the values were obtained:
# [1] = Simulation of plasma Ketorolac concentrations with the MMSPK population pharmacokinetic model (NONMEM); set-up: species or system human; conditions: population PK model parameter estimate
# Description: A modified version of the Mandema-Stanski published model for Ketorolac (termed the Modified Mandema-Stanski PK model, or the MMSPK Model) was developed in steps; a base model development step for description of structural components of the model followed by a covariate analysis. For the latter the base model output was used to conduct a graphical evaluation of the covariates at first. A full model including all relevant covariate effects (e.g. each covariate-parameter relationship which was significant during single covariate model testing was included in the full model) was then developed. A final model was chosen by retaining only the statistically significant covariate effects. The parameters in the population models were estimated using the NONMEM software program (version 7.3). The stochastic approximation estimation method (SAEM) was used for estimation. A visual predictive check (VPC) was conducted for the model using all data.
# Simulations: Once the model was qualified, stochastic simulations were conducted to assess the expected range of concentrations following several dose regimens. […]
# For each simulation scenario 800 subjects were simulated. […] The simulation outputs were assessed graphically and summaries of key metrics (see Table 1) were summarized and tabled. […]
# clinical = conditions: human, plasma
# Protocol: (§1) Twelve (12) subjects were randomized to receive a total daily dose of 120 mg Ketorolac tromethamine (Ketorolac Tromethamine Injection, USP 30 mg/mL, manufactured by Hospira Inc., Lot No.: 51600LL) administered as either: (Treatment A) one continuous SC infusion of 4 mL to the abdomen over 24 hours at a steady rate of 5 mg/hr (0.167 mL/hr), or (Treatment B) four IM bolus injections of 30 mg (1 mL) to alternating gluteus maximus muscle every 6 hours. […] The treatments were separated by a washout period of ≥4 days. The total daily dose of 120 mg Ketorolac tromethamine administered as 4×30 mg/mL IM bolus injections is a recommended treatment for subjects under 65 years of age according to the product labeling.
# (§2) Blood samples for the determination of plasma Ketorolac following continuous SC infusion (Treatment A) were collected at the following time points: pre-dose (0 hour), 0.25, 0.5, 1, 1.5, 2, 4, 6, 8, 10, 12, 14, 16, 18, 20, 22, 23, 24 (2 blood samples were collected at the 24 hour time point; 1 immediately prior to the end of infusion and 1 immediately following end of infusion), 24.167, 24.33, 24.5, 25, 26, 28, 30, 32, 36, and at 48 hours post-dose. The time for post-dose blood collection are expressed relative to the start of infusion.
# (§3) Blood samples for the determination of plasma Ketorolac following IM injections (Treatment B) were collected at the following time points: pre-dose (0 hour), 0.167, 0.25, 0.5, 0.75, 1, 1.25, 1.5, 2, 3, 4, 6 (pre-dose), 6.25, 6.5, 6.75, 7, 8, 10, 12 (pre-dose), 12.25, 12.75, 13, 14, 16, 18 (pre-dose), 18.25, 18.5, 18.75, 19, 20, 22, 24, 28, 32, and at 48 hours post-dose. The time for post-dose blood collection are expressed relative to the first IM injection.
# (§4) Ketorolac plasma concentrations were determined using a validated liquid chromatographic tandem mass spectrometry (LC-MS/MS) method, with a lower limit of quantitation (LLOQ) of 10.0 ng/mL9. The validated plasma Ketorolac concentration range was 10.0 to 5000 ng/mL. Assay performance was monitored using quality control (QC) samples at concentrations of 30.0 ng/mL, 200 ng/mL, and 3800 ng/mL; the % CV for the QCs ranged from 1.3% to 15.1% and accuracy was 91.6-102.5%.
# (§5) Non-compartmental PK parameters were calculated from Ketorolac concentrations-time data in plasma using Phoenix® WinNonlin® Professional (Versions 6.3; Pharsight, Mountain View, Calif.). […] AUC0-inf was calculated as the sum AUC0-last plus the ratio of the last measurable plasma concentration (Clast) to kel; AUC0-last, AUC0-24, and AUCtau were calculated by the linear trapezoidal summation method; AUCext was calculated as 1-AUC0-last/AUC0-inf multiplied by 100, Cmax, Ctrough, tmax were reported as observed values; Cavg was calculated as AUCtau divided by 6 hours for the IM administration; Css was calculated as the average of the concentrations from the time steady-state was reached until the end of SC infusion; CL/F was calculated as dose/AUC0-inf (for SC administration) or dose/AUCtau (for IM administration); Vz/F was calculated as (CL/F)/kel); kel was calculated by linear least-square regression analysis using the maximum number of points in the terminal log-linear phase (using 3 or more non-zero plasma concentrations); t½ was calculated as ln(2)/kel.
# (§6) Statistical analyses were conducted to compare Ketorolac AUC0 24, AUC0 last, and Cmax following continuous SC infusion and repeat IM bolus injections. A SAS® mixed model procedure was performed on the natural log (ln)-transformed PK parameters.
# [2] = for plasma Ketorolac concentration (predose Ctrough), Geometric LSM: Treatment B four IM bolus injections every 6 hours
# Protocol: as §1, §2, §3, §4, §5, §6
# [3] = Safety assessments (adverse events, vital signs, ECG, injection/infusion site) in the crossover study in healthy subjects
# Protocol: Twelve (12) subjects were randomized to receive a total daily dose of 120 mg Ketorolac tromethamine (Ketorolac Tromethamine Injection, USP 30 mg/mL, manufactured by Hospira Inc., Lot No.: 51600LL) administered as either: (Treatment A) one continuous SC infusion of 4 mL to the abdomen over 24 hours at a steady rate of 5 mg/hr (0.167 mL/hr), or (Treatment B) four IM bolus injections of 30 mg (1 mL) to alternating gluteus maximus muscle every 6 hours. For the continuous SC infusion, the MedFusion 3500 syringe pump was assembled with Animas Inset Infusion Set 23 inch 6 mm 10/box Grey (100-182-00), B-D Luer-Lok Syringe 5 mL and B-D 20 G 1 inch needle (Becton Dickinson). The treatments were separated by a washout period of ≥4 days.
# All subjects underwent pre-dose (each period) and post-study assessments including physical examinations, routine laboratory tests, vital signs, and 12-lead electrocardiograms (ECGs). Alcohol and drug screen were conducted before each dosing period. All subjects were between 19 and 55 years old with a body mass index (BMI) between 18.5 and 30.0 kg/m2. Subjects had to refrain from the use of any prescription medications including over-the-counter products, herbal products or vitamin supplement within 14 days of dosing.
# [4] = oral KT; literature value used in simulations; cited from earlier work
# [5] = Treatment A (Test, N = 11): continuous SC infusion over 24 hours
# [6] = Treatment A versus Treatment B, 100 * (test/reference)
# [7] = Treatment A: 120 mg continuous SC infusion over 24 hours, N = 11, geom. mean (geom. CV %)
# [8] = Treatment A: 120 mg continuous SC infusion over 24 hours, N = 11, mean ± SD
# [9] = Treatment A, individual spline (quadratic plateau) regression, N 11
# [10] = Treatment A, individual spline (quadratic plateau) regression, N 11, listed as Ketorolac tromethamine
# [11] = Treatment B (Reference, N = 12): four IM bolus injections of 30 mg every 6 hours
smiles,measurement,setting,value
"O=C(c1ccccc1)c1ccc2n1CCC2C(=O)O (racemic) [Ketorolac, (±)-5-benzoyl-2,3-dihydro-1H-pyrrolizine-1-carboxylic acid, compound with 2-amino-2-(hydroxymethyl)-1,3-propanediol]",CL estimate (MMSPK model),[1],2.92 L/h
same,estimated Ka for IM absorption (MMSPK model),[1],11.6 h⁻¹
same,half-life,clinical; 120 mg,~7 h
same,AUC,"clinical; im, 30 mg",6810 ng·h/mL
same,AUC(0-t),"clinical; im, 30 mg",23600 ng·h/mL
same,Cmax,"clinical; im, 30 mg",2240 ng/mL
same,Tmax,"clinical; im, 30 mg",9.25 h
same,Vd/F,"clinical; im, 30 mg",30.3 ± 7.69 L
same,half-life,"clinical; im, 30 mg",7.02 ± 1.44 h
same,AUC(0-inf),"clinical; sc, 120 mg",29100 ng·h/mL
same,AUC(0-t),"clinical; sc, 120 mg",21500 ng·h/mL
same,Cmax,"clinical; sc, 120 mg",1340 ng/mL
same,Tmax,"clinical; sc, 120 mg",23 h
same,Vd/F,"clinical; sc, 120 mg",29.1 ± 10.9 L
same,concentration at 4 h,"clinical; sc, 120 mg",617 ng/mL
same,concentration at 6 h,"clinical; sc, 120 mg",718 ng/mL
same,concentration at 8 h,"clinical; sc, 120 mg",838 ng/mL
same,concentration at 10 h,"clinical; sc, 120 mg",894 ng/mL
same,concentration at 12 h,"clinical; sc, 120 mg",946 ng/mL
same,concentration at 14 h,"clinical; sc, 120 mg",1020 ng/mL
same,concentration at 16 h,"clinical; sc, 120 mg",1050 ng/mL
same,concentration at 18 h,"clinical; sc, 120 mg",1160 ng/mL
same,concentration at 20 h,"clinical; sc, 120 mg",1210 ng/mL
same,concentration at 22 h,"clinical; sc, 120 mg",1200 ng/mL
same,concentration at 23 h,"clinical; sc, 120 mg",1230 ng/mL
same,concentration at 24 h,"clinical; sc, 120 mg",1170 ng/mL
same,half-life,"clinical; sc, 120 mg",6.93 ± 0.84 h
same,AUC0-24 Geometric LSM,[2]; [5],21510 ng·h/mL
same,AUC0-last Geometric LSM,[2]; [5],28260 ng·h/mL
same,overall Tss (time to steady-state),"[2]; Treatment A SC infusion, Helmert contrast",18 h
same,"overall exposure (AUC0-24 and AUC0-last), SC infusion compared with IM bolus injections",[2]; Treatment A versus Treatment B,similar
same,Cmax lower following continuous SC infusion compared to 4 IM bolus injections,"[2]; Treatment A versus Treatment B, 120 mg total daily dose",40%
same,AUC0-24 Geometric Mean Ratio,[2]; [6],91.23%
same,AUC0-last Geometric Mean Ratio,[2]; [6],101.53%
same,Cmax—all Geometric Mean Ratio,[2]; [6],59.86%
same,AUC0-last,[2]; [7],28.48 (30.9) μg * hr/mL
same,Cmax—all,[2]; [7],1.344 (25.6) μg/mL
same,AUC%extrap,[2]; [8],1.96 ± 1.2860%
same,Css,[2]; [8],1238 ± 299.6 ng/mL
same,Kel,"[2]; Treatment A: 120 mg continuous SC infusion over 24 hours, mean ± SD",0.1014 ± 0.01213 h⁻¹
same,CL/F,"[2]; Treatment A: 120 mg continuous SC infusion over 24 hours, mean ± SD, listed as Ketorolac tromethamine",2.924 ± 0.9799 L/h
same,"Plateau Concentration, Mean (SD)",[2]; [9],1053 (234.5) ng/mL
same,"Plateau Concentration, Median (Min, Max)",[2]; [9],1084 ng/mL
same,"Time to Steady-State, Mean (SD)",[2]; [9],6.30 (4.17) hr
same,"Time to Steady-State, Median (Min, Max)",[2]; [9],4 h
same,"Plateau Concentration, Median (Min, Max)",[2]; [10],"1084 (572.4, 1426) ng/mL"
same,"Time to Steady-State, Median (Min, Max)",[2]; [10],"3.68 (1.98, 13.63) hr"
same,AUC0-24 Geometric LSM,[2]; [11],23580 ng·h/mL
same,AUC0-last Geometric LSM,[2]; [11],27830 ng·h/mL
same,"plasma Ketorolac concentration (predose Ctrough), Geometric LSM",[2]; Hour 6,302.545
same,"plasma Ketorolac concentration (predose Ctrough), Geometric LSM",[2]; Hour 12,368.216
same,"plasma Ketorolac concentration (predose Ctrough), Geometric LSM",[2]; Hour 18,432.393
same,"plasma Ketorolac concentration (predose Ctrough), Geometric LSM",[2]; Hour 24,564.178
same,Ctrough (LSM) at the highest,[2]; following IM injections (Treatment B),564.2 ng/mL
same,"Individual Tss (spline method), range",[2]; following SC infusion (Treatment A),2.0 to 14 h
same,geometric LSM Css,"[2]; following SC infusion (Treatment A), Helmert contrast",1160 ng/mL
same,infusion site adverse event,"[3]; Treatment A, 13 minutes following completion of the 24-hour infusion, resolved in approximately 2 days, possibly related to study drug",One subject experienced mild infusion site pain
same,injection site adverse event,"[3]; Treatment B, approximately 6.5 hours after the 4th IM injection, resolved in 15 days, not related to study drug",Another subject experienced mild injection site hemorrhage
same,subjects experiencing TEAEs following each treatment arm,[3]; each of Treatment A and Treatment B,2 subjects
same,safety and tolerability,[3]; total dose of 120 mg via continuous SC infusion,safe and well tolerated
same,"vital sign, ECG, or injection/infusion site reaction results",[3]; whole study,no clinically significant trends
same,subjects experiencing TEAEs,"[3]; whole study, 12 subjects",4 (33%) subjects
same,deaths or serious adverse events (SAEs),"[3]; whole study, both treatments",no deaths or serious adverse events (SAEs)
same,number of mild treatment emergent adverse events (TEAEs),"[3]; whole study, both treatments",7
same,Ka,[4],11 h⁻¹
same,absorption lag time,[4],0.2 h
